Assay results from the PolyMetriX glass transition set.
± gives the standard deviation of the reports.

With `*CCCCCCCCOc1ccc(/C=C2\CCC/C(=C\c3ccc(O*)cc3)C2=O)cc1` (repeat unit) as the molecule, how does the glass transition temperature read?
The glass transition temperature was 90.00 °C.

With `*OC(=O)OCCCCOC(=O)OC1COC2C(*)COC12` (repeat unit) as the molecule, how does the glass transition temperature read?
Its glass transition temperature is 49.00 °C.

With `*CCCS(=O)(=O)CCCCS(=O)(=O)CCCOC(=O)O*` (repeat unit) as the molecule, how does the glass transition temperature read?
The glass transition temperature was 43.00 °C.

With `*CC(*)OCCCC` (repeat unit) [Poly(butyl vinyl ether)] as the molecule, how does the glass transition temperature read?
The glass transition temperature was -52.08 ± 1.5 °C.

With `*Oc1cccc(Oc2cccc(*)c2)c1C#N` (repeat unit) as the molecule, how does the glass transition temperature read?
The glass transition temperature was 145.00 °C.

For `*CC(*)C(=O)OC(Cl)C(Cl)(Cl)Cl` (repeat unit), which glass transition temperature is on record?
Its glass transition temperature is 70.50 °C.

Which glass transition temperature does the source give for `*CC(*)C(=O)Oc1ccc(C)cc1` (repeat unit) here?
The glass transition temperature was 42.50 °C.

Which glass transition temperature does the source give for `*CCCCCCOP(=O)(/N=N/c1ccc(COC(=O)c2cc(C(=O)OCc3ccc(/N=N/P(=O)(O*)OC)cc3)cc(C(C)(C)C)c2)cc1)OC` (repeat unit) here?
The glass transition temperature was 62.00 °C.

For `*c1ccc(C2(c3ccc(N4C(=O)c5ccc(Oc6ccc7c(c6)C(=O)N(*)C7=O)cc5C4=O)cc3)c3ccccc3-c3ccccc32)cc1` (repeat unit), which glass transition temperature is on record?
Its glass transition temperature is 373.00 °C.

With `*CC(*)c1ccc(B(Oc2ccc(-c3ccc(N(C)C)cc3)c3cccnc23)c2ccc(C(C)(C)C)cc2)cc1` (repeat unit) as the molecule, how does the glass transition temperature read?
Its glass transition temperature is 230.00 °C.

For `*c1ccc(NC(=O)Nc2ccc(NC(=O)Nc3ccc(-c4nc(C#N)c(C#N)nc4*)cc3)cc2)cc1` (repeat unit), which glass transition temperature is on record?
The glass transition temperature was 248.70 °C.

With `*Oc1ccc(C2(c3ccc(Oc4ccc(C(=O)c5c(C(=O)c6ccc(*)cc6)c(-c6ccccc6)c(-c6ccc7ccccc7c6)c(-c6ccc7ccccc7c6)c5-c5ccccc5)cc4)cc3)c3ccccc3-c3ccccc32)cc1` (repeat unit) as the molecule, how does the glass transition temperature read?
Its glass transition temperature is 310.00 °C.

Which glass transition temperature does the source give for `*Nc1ccc(C(c2ccc(NC(=O)c3cccc(C(*)=O)c3)cc2)(C(F)(F)F)C(F)(F)F)cc1` (repeat unit) here?
The glass transition temperature was 272.00 °C.

Which glass transition temperature does the source give for `*c1ccc2nc(-c3ccc4c(c3)C(=O)N(c3cc(C(*)(C(F)(F)F)C(F)(F)F)ccc3O)C4=O)oc2c1` (repeat unit) here?
The glass transition temperature was 329.00 °C.

Which glass transition temperature does the source give for `*Nc1cc([N+](=O)[O-])c(NC(=O)CCCCCCC(*)=O)cc1/C=C/c1ccc(N(C)C)cc1` (repeat unit) here?
The glass transition temperature was 180.00 °C.

With `*CC1CCC(COC(=O)Nc2ccc(Cc3ccc(NC(=O)O*)cc3)cc2)CC1` (repeat unit) as the molecule, how does the glass transition temperature read?
Its glass transition temperature is 134.00 °C.

Which glass transition temperature does the source give for `*c1ccc(Cc2ccc(N3C(=O)c4cc(-c5ccc(C(C)(C)C)cc5)c(-c5cc6c(cc5-c5ccc(C(C)(C)C)cc5)C(=O)N(*)C6=O)cc4C3=O)cc2)cc1` (repeat unit) here?
The glass transition temperature was 360.00 °C.

Which glass transition temperature does the source give for `*CCCCCCCCNC(=O)C(OC)C(OC)C(=O)N*` (repeat unit) here?
The glass transition temperature was 89.00 °C.

Which glass transition temperature does the source give for `*CC(=O)Nc1ccc(S(=O)(=O)c2ccc(NC(=O)c3ccc4c(c3)C(=O)N(*)C4=O)cc2)cc1` (repeat unit) here?
Its glass transition temperature is 232.00 °C.

For `*CCCCCOC(=O)c1ccc2cc(C(=O)O*)ccc2c1` (repeat unit), which glass transition temperature is on record?
Its glass transition temperature is 58.50 °C.

For `*CC(OCC(C)C)C(C)(C(=O)OC)C(*)(C)C(=O)OC` (repeat unit), which glass transition temperature is on record?
Its glass transition temperature is 125.50 °C.

With `*c1ccc2c(c1)C(=O)N(c1ccc(N(C)CCN(C)c3ccc(N4C(=O)c5ccc(C(*)(C(F)(F)F)C(F)(F)F)cc5C4=O)cc3)cc1)C2=O` (repeat unit) as the molecule, how does the glass transition temperature read?
The glass transition temperature was 227.00 °C.

For `*c1ccc(Oc2ccc(NC(=O)CN3C(=O)c4ccc(C(c5ccc6c(c5)C(=O)N(CC(=O)Nc5ccc(Oc7ccc(-c8nnc(*)o8)cc7)cc5)C6=O)(C(F)(F)F)C(F)(F)F)cc4C3=O)cc2)cc1` (repeat unit), which glass transition temperature is on record?
The glass transition temperature was 263.00 °C.

With `*C(=O)OCCCSCCCCCCSCCCOC(=O)c1ccc(N2C(=O)c3ccc(*)cc3C2=O)cc1` (repeat unit) as the molecule, how does the glass transition temperature read?
Its glass transition temperature is 31.00 °C.

Which glass transition temperature does the source give for `*CCOCCOCCOC(=O)c1cc(/N=N/c2ccc(OCC)cc2)ccc1-c1ccc(/N=N/c2ccc(OCC)cc2)cc1C(=O)O*` (repeat unit) here?
Its glass transition temperature is 65.00 °C.

With `*/C=C(/*)C(CCC)[Si](C)(C)c1ccccc1` (repeat unit) as the molecule, how does the glass transition temperature read?
The glass transition temperature was 110.00 °C.

With `*=NP(=NP(=NC(=*)Oc1ccc(Br)cc1)(Oc1ccc(Br)cc1)Oc1ccc(Br)cc1)(Oc1ccc(Br)cc1)Oc1ccc(Br)cc1` (repeat unit) as the molecule, how does the glass transition temperature read?
Its glass transition temperature is 45.00 °C.

Which glass transition temperature does the source give for `*CCCCCCCCCCCNC(=O)CCCCCCCCCCCCCCCCCCC(=O)N*` (repeat unit) here?
The glass transition temperature was 29.00 °C.

Which glass transition temperature does the source give for `*CC(*)OCC(C)C` (repeat unit) [Poly(isobutyl vinyl ether)] here?
The glass transition temperature was -22.08 ± 2.5 °C.

For `*Oc1ccc(C(C)(C)c2ccc(Oc3ccc(C(=O)c4ccc(*)cc4)cc3)cc2)cc1` (repeat unit), which glass transition temperature is on record?
The glass transition temperature was 155.00 °C.

Which glass transition temperature does the source give for `*/C=C/C1CC(*)C(C#N)([Si](C)(C)O[Si](C)(C)O[Si](C)(C)C)C1` (repeat unit) here?
The glass transition temperature was 47.00 °C.

Which glass transition temperature does the source give for `*Oc1ccc(C(c2ccc(Oc3ccc(C(=O)c4c(C(=O)c5ccc(*)cc5)c(-c5ccc(F)cc5)c(-c5ccc(F)cc5)c(-c5ccc(F)cc5)c4-c4ccc(F)cc4)cc3)cc2)(C(F)(F)F)C(F)(F)F)cc1` (repeat unit) here?
The glass transition temperature was 253.00 °C.

For `*c1ccc(-c2cc(CCCCCCCC)c(-c3ccc(-c4ccc(-c5sc(-c6ccc([Si](C)(C)[Si](*)(C)C)s6)cc5CCCCCCCC)s4)s3)s2)s1` (repeat unit), which glass transition temperature is on record?
Its glass transition temperature is 12.00 °C.

With `*c1ccc2c(c1)C(=O)N(c1cccc(C(F)(F)C(F)(F)C(F)(F)c3cccc(N4C(=O)c5ccc(C(F)(F)C(F)(F)C(F)(F)C(F)(F)C(F)(F)C(F)(F)C(*)(F)F)cc5C4=O)c3)c1)C2=O` (repeat unit) as the molecule, how does the glass transition temperature read?
The glass transition temperature was 133.50 °C.

For `*CCCCOc1ccc(OCCCCc2nnc(-c3ccc(-c4nnc(*)o4)cc3)o2)c(C)c1` (repeat unit), which glass transition temperature is on record?
Its glass transition temperature is 129.00 °C.

Which glass transition temperature does the source give for `*Oc1ccc(C2(c3ccc(OC(=O)CCC(*)=O)cc3)c3cc(N(C)C)ccc3-c3ccc([N+](=O)[O-])cc32)cc1` (repeat unit) here?
Its glass transition temperature is 215.00 °C.

For `*CCN(CCOC(=O)Nc1ccc(C)c(NC(=O)O*)c1)c1ccc(/N=N/c2ccc([N+](=O)[O-])cc2)cc1` (repeat unit), which glass transition temperature is on record?
Its glass transition temperature is 144.00 °C.

Which glass transition temperature does the source give for `*C(=O)Nc1ccc(Oc2ccc(-c3ccc(Oc4ccc(NC(=O)c5ccc6c(c5)C(=O)N(c5ccc(Oc7ccc(C8(c9ccc(Oc%10ccc(N%11C(=O)c%12ccc(*)cc%12C%11=O)cc%10)cc9)CC9CC8C8CCCC98)cc7)cc5)C6=O)cc4)cc3C)c(C)c2)cc1` (repeat unit) here?
Its glass transition temperature is 265.00 °C.

For `*Nc1ccc(NC(=O)c2ccc(C(c3ccc(C(*)=O)c(C(=O)OCC)c3)(C(F)(F)F)C(F)(F)F)cc2C(=O)OCC)cc1` (repeat unit), which glass transition temperature is on record?
The glass transition temperature was 270.00 °C.

Which glass transition temperature does the source give for `*CCC(C)C(C)CCNC(=O)c1cccc(C(=O)N*)c1` (repeat unit) here?
Its glass transition temperature is 125.00 °C.

For `*COc1ccc(C(C)(C)c2ccc(Oc3ccc(*)n3-c3ccc(C#N)cc3)cc2)cc1` (repeat unit), which glass transition temperature is on record?
Its glass transition temperature is 73.13 °C.

For `*C(=O)OC1CC2CC(OC(=O)N3CCN(*)CC3)CC(C1)O2` (repeat unit), which glass transition temperature is on record?
Its glass transition temperature is 113.00 °C.

With `*Oc1ccc(S(=O)(=O)c2ccc(Oc3ccc4c(=O)n5c6cc(Oc7ccc8c(c7)nc7c9ccc(*)c%10cccc(c(=O)n87)c%109)ccc6nc5c5cccc3c45)cc2)cc1` (repeat unit) as the molecule, how does the glass transition temperature read?
The glass transition temperature was 374.00 °C.

For `*Nc1cccc(/C=C/c2ccc(NC(=O)c3cccc(C(*)=O)c3)cc2)c1` (repeat unit), which glass transition temperature is on record?
The glass transition temperature was 272.00 °C.
